Experimental data from PubChem BioAssay (NCI).
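Following 48 hours of exposure in 96-well plates, responses at five concentrations were used to interpolate endpoints linearly. The concentration for full growth arrest is given as TGI.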

Experiments:
Test in all cases: growth of human tumour cells (NCI), 48 h
[1] = system: NCI-H522 lung
[2] = system: DMS 114 small cell lung
[3] = system: OVCAR-5 ovarian
[4] = system: SF-295 CNS
[5] = system: HCT-15 colon
[6] = system: KM12 colon
[7] = system: UO-31 renal
[8] = system: M19-MEL melanoma
[9] = system: XF 498 CNS
[10] = system: U251 CNS
[11] = system: SF-268 CNS
[12] = system: SF-539 CNS
[13] = system: OVCAR-3 ovarian
[14] = system: SNB-19 CNS
[15] = system: SK-MEL-28 melanoma
[16] = system: NCI-H23 lung
[17] = system: NCI-H226 lung
[18] = system: MOLT-4 leukemia
[19] = system: DLD-1 colon
[20] = system: OVCAR-4 ovarian
[21] = system: CAKI-1 renal
[22] = system: LXFL 529 NSCLC
[23] = system: HCT-116 colon
[24] = system: RXF 393 renal
[25] = system: OVCAR-8 ovarian
[26] = system: 786-0 renal
[27] = system: HOP-92 NSCLC
[28] = system: RPMI-8226 leukemia
[29] = system: KM20L2 colon
[30] = system: CCRF-CEM leukemia
[31] = system: DMS 273 small cell lung
[32] = system: IGROV1 ovarian
[33] = system: NCI-H460 lung
[34] = system: SK-OV-3 ovarian
[35] = system: ACHN renal
[36] = system: A549 NSCLC
[37] = system: RXF-631 renal
[38] = system: MALME-3M melanoma
[39] = system: HCC-2998 colon
[40] = system: K-562 leukemia
[41] = system: COLO 205 colon
[42] = system: LOX IMVI melanoma
[43] = system: UACC-257 melanoma
[44] = system: SNB-75 CNS
[45] = system: SNB-78 CNS
[46] = system: SR leukemia
[47] = system: SW-620 colon
[48] = system: SK-MEL-5 melanoma
[49] = system: HT29 colon
[50] = system: SN12C renal
[51] = system: M14 melanoma
[52] = system: HL-60(TB) leukemia
[53] = system: UACC-62 melanoma
[54] = system: HOP-62 NSCLC
[55] = system: TK-10 renal
[56] = system: EKVX NSCLC
[57] = system: A498 renal

For `O=c1[nH]c2cc(Cl)ccc2nc1/C(=N\O)C(O)c1ccc(Cl)cc1Cl` (stereo unspecified), the TGI [1] was > 100 µM, the TGI [2] was > 100 µM and the TGI [3] was > 100 µM. For the same compound, the TGI [4] was > 100 µM, the TGI [5] was > 100 µM and the TGI [6] was > 100 µM. For the same compound, the TGI [7] was > 100 µM, the TGI [8] was > 100 µM and the TGI [9] was > 100 µM. For the same compound, the TGI [10] was > 100 µM, the TGI [11] was > 100 µM and the TGI [12] was > 100 µM. For the same compound, the TGI [13] was > 100 µM, the TGI [14] was > 100 µM and the TGI [15] was > 100 µM. For the same compound, the TGI [16] was > 100 µM, the TGI [17] was > 100 µM and the TGI [18] was > 100 µM. The TGI [19] was > 100 µM, the TGI [20] was > 100 µM and the TGI [21] was > 100 µM. For the same compound, the TGI [22] was > 100 µM, the TGI [23] was > 100 µM and the TGI [24] was > 100 µM. For the same compound, the TGI [25] was > 100 µM, the TGI [26] was > 100 µM and the TGI [27] was > 100 µM. For the same compound, the TGI [28] was > 100 µM, the TGI [29] was > 100 µM and the TGI [30] was > 100 µM. For the same compound, the TGI [31] was > 100 µM, the TGI [32] was > 100 µM and the TGI [33] was > 100 µM. The TGI [34] was > 100 µM, the TGI [35] was > 100 µM and the TGI [36] was > 100 µM. For the same compound, the TGI [37] was > 100 µM, the TGI [38] was > 100 µM and the TGI [39] was > 100 µM. For the same compound, the TGI [40] was > 100 µM, the TGI [41] was > 100 µM and the TGI [42] was > 100 µM. For the same compound, the TGI [43] was > 100 µM, the TGI [44] was > 100 µM and the TGI [45] was > 100 µM. For the same compound, the TGI [46] was > 100 µM, the TGI [47] was > 100 µM and the TGI [48] was > 100 µM. For the same compound, the TGI [49] was > 100 µM, the TGI [50] was > 100 µM and the TGI [51] was > 100 µM. For the same compound, the TGI [52] was > 100 µM, the TGI [53] was > 100 µM and the TGI [54] was > 100 µM.
For `COc1cc(C)c2c(c1C)OC(=O)c1c(C)c(Cl)c(O)c(C=O)c1O2`, the TGI [3] was 81.8 µM, the TGI [6] was 35.1 µM and the TGI [7] was 76 µM. For the same compound, the TGI [9] was 49.5 µM, the TGI [11] was 65.1 µM and the TGI [12] was 26.6 µM. The TGI [13] was 9.5 µM, the TGI [14] was > 100 µM and the TGI [16] was 32 µM. The TGI [17] was 87.6 µM, the TGI [55] was > 100 µM and the TGI [18] was 32 µM. The TGI [19] was 59 µM, the TGI [21] was > 100 µM and the TGI [22] was 43.3 µM. For the same compound, the TGI [23] was 54.9 µM, the TGI [25] was 27.4 µM and the TGI [26] was 24.6 µM. The TGI [28] was 33.4 µM, the TGI [29] was 69.5 µM and the TGI [30] was 47.3 µM. The TGI [31] was 37.2 µM, the TGI [32] was 72.7 µM and the TGI [56] was 26.4 µM. It also gave a TGI [33] of 40.3 µM, a TGI [34] of 65 µM and a TGI [35] of 35.9 µM. It also gave a TGI [36] of 44.3 µM, a TGI [37] of 57.1 µM and a TGI [38] of 42.3 µM. The TGI [39] was 47.5 µM, the TGI [40] was 45.6 µM and the TGI [57] was 33.2 µM. For the same compound, the TGI [41] was 76.7 µM, the TGI [42] was 42.8 µM and the TGI [43] was 61.5 µM. It also gave a TGI [44] of 46.8 µM, a TGI [45] of 50.6 µM and a TGI [46] of 31.9 µM. For the same compound, the TGI [47] was > 100 µM, the TGI [48] was > 100 µM and the TGI [49] was 70.3 µM. The TGI [50] was > 100 µM, the TGI [51] was 52 µM and the TGI [52] was 22 µM. It also gave a TGI [53] of 43.6 µM and a TGI [54] of 47 µM.
